Target: T1, human MCH-1R (Homo sapiens, UniProt Q99705)
T1 construct: expressed in transfected cells; host or cells: CHO-K1 (American Type Culture Collection); membrane samples
Test: MCH binding inhibition test
Details: membranes of MCH-1R expressing CHO-K1 cells, 50 pM [125I]MCH, 25° C., one hour, pH 7.4; read-out: IC50 (50% inhibition concentration to the specific [125I]MCH binding)
Description: Pharmacological Test Example 1 (MCH Binding Inhibition Test)
A human MCH-1R encoding cDNA sequence [FEBS Letters, Vol. 398, 253 (1996); Biochimica et Biophisica Acta, Vol. 1401, 216 (1998)] was cloned to a plasmid vector pEF/myc/cyto (Invitrogen Corporation). The obtained expression vector was transfected to host cells CHO-K1 (American Type Culture Collection) using Lipofectamine Plus Reagent (Life Technology Inc.) to provide MCH-1R expression cells.
Membrane samples prepared from the MCH-1R expression cells were incubated with each test compound and 50 pM of [^125I]MCH (NEN Co.), in an assay buffer (50 mM Tris buffer comprising 10 mM magnesium chloride, 2 mM ethylenediamine tetraacetate, 0.01% bacitracin and 0.2% bovine serum albumin; pH 7.4) at 25° C. for an hour, followed by filtration through a glass filter GF/C (Wattman Co.). After washing the glass filter with 50 mM Tris buffer (pH 7.4) comprising 10 mM magnesium chloride, 2 mM ethylenediamine tetraacetate and 0.04% Tween-20, the radioactive activity on the glass filter was measured. The non-specific binding was measured in the presence of 1 μM human MCH and 50% inhibition concentration (IC50 value) of each test compound to the specific [^125I]MCH binding was determined.

T1 sequence (Q99705 whole entry): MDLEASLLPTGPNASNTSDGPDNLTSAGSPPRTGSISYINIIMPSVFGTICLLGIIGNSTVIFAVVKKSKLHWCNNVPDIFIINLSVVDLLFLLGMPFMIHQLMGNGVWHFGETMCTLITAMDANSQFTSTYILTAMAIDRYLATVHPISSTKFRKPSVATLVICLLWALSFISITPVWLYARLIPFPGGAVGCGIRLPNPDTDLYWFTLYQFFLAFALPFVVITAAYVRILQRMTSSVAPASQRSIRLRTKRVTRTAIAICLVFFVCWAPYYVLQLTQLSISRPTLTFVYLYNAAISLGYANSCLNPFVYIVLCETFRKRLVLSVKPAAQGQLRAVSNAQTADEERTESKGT

IC50 [nM] | Compound
1.5 | CCN(C)C/C=C/c1ccc(-n2ccc(OCc3ccc(Cl)cc3)cc2=O)cc1 [Example 3, 4-[(4-Chlorobenzyl)oxy]-1-(4-{(1E)-3-[ethyl(methyl)amino]-1-propen-1-yl}phenyl)pyridin-2(1H)-one]
1.2 | CCCN(C)C/C=C/c1ccc(-n2ccc(OCc3ccc(Cl)cc3)cc2=O)cc1 [Example 4, 4-[(4-Chlorobenzyl)oxy]-1-(4-{(1E)-3-[propyl(methyl)amino]-1-propen-1-yl}phenyl)pyridin-2(1H)-one]
1.4 | CC(C)N(C)C/C=C/c1ccc(-n2ccc(OCc3ccc(Cl)cc3)cc2=O)cc1 [Example 5, 4-[(4-Chlorobenzyl)oxy]-1-(4-{(1E)-3-[isopropyl(methyl)amino]-1-propen-1-yl]phenyl}pyridin-2(1H)-one]
0.93 | CCCCN(C)C/C=C/c1ccc(-n2ccc(OCc3ccc(Cl)cc3)cc2=O)cc1 [Example 6, 4-[(4-Chlorobenzyl)oxy]-1-(4-{(1E)-3-[butyl(methyl)amino]-1-propen-1-yl}phenyl)pyridin-2(1H)-one]
1.4 | CN(C)C/C=C/c1ccc(-n2ccc(OCc3ccc(Cl)cc3)cc2=O)cc1 [Example 8, 4-[(4-Chlorobenzyl)oxy]-1-(4-[(1E)-3-(dimethylamino)-1-propen-1-yl]phenyl)pyridin-2(1H)-one]
4.5 | O=c1cc(OCc2ccc(F)cc2)ccn1-c1ccc(NCCN2CCCC2)cc1 [Example 14, 4-[(4-Fluorobenzyl)oxy]-1-{4-[(2-pyrrolidin-1-ylethyl)amino]phenyl}pyridin-2(1H)-one]
5.8 | CO[C@H]1CCN(CCc2ccc(-n3ccc(OCc4ccc(F)cc4)cc3=O)cc2)C1 [Example 27, 4-[(4-Fluorobenzyl)oxy]-1-(4-{2-[(3S)-3-methoxypyrrolidin-1-yl]ethyl}phenyl)pyridin-2(1H)-one]
6.2 | CCN(CC)CCc1ccc(-n2ccc(OCc3ccc(Cl)cn3)cc2=O)cc1 [Example 32, 4-[(5-Chloropyridin-2-yl)methoxy]-1-{4-[2-(diethylamino)ethyl]phenyl}pyridin-2(1H)-one]
4.6 | O=c1cc(OCc2ccc(Cl)cn2)ccn1-c1ccc(CCNC2CCCC2)cc1 [Example 37, 4-[(5-Chloropyridin-2-yl)methoxy]-1-{4-[(2-cyclopentylamino)ethyl]phenyl}pyridin-2(1H)-one]
3.5 | O=c1cc(OCc2ccc(F)cc2)ccn1-c1ccc([C@H]2C[C@H](N3CCCC3)C2)cc1 [Example 53, 4-[(4-Fluorobenzyl)oxy]-1-[4-(trans-3-pyrrolidin-1-ylcyclobutyl)phenyl]pyridin-2(1H)-one]
